In PubChem BioAssay AID1259407 (Chemical Carcinogenesis Research Information System (CCRIS), 2018):
Calls of active or inactive are those of the source. How the calls were made is not given here.

Tested on: CCRIS mutagenicity, Ames/micronucleus/aberration tests
Assay: CCRIS mutagenicity studies
[1] = Test System: AMES SALMONELLA TYPHIMURIUM, Strain/Indicator: TA98, Metabolic Activation: NONE, Method: GAS EXPOSURE
[2] = Test System: AMES SALMONELLA TYPHIMURIUM, Strain/Indicator: TA100, Metabolic Activation: NONE, Method: GAS EXPOSURE
[3] = Test System: AMES SALMONELLA TYPHIMURIUM, Strain/Indicator: TA1535, Metabolic Activation: NONE, Method: GAS EXPOSURE
[4] = Test System: AMES SALMONELLA TYPHIMURIUM, Strain/Indicator: TA1537, Metabolic Activation: NONE, Method: GAS EXPOSURE
[5] = Test System: E.COLI, Strain/Indicator: WP2UVRA, Metabolic Activation: NONE, Method: GAS EXPOSURE

## CCCl
Test System: AMES SALMONELLA TYPHIMURIUM, Strain/Indicator: TA98, Metabolic Activation: NONE, Method: DESICCATOR
  mutagenic call: inactive; negative
[1]
  mutagenic call: inactive; negative
Test System: AMES SALMONELLA TYPHIMURIUM, Strain/Indicator: TA98, Metabolic Activation: RAT LIVER S-9, PHENOBARBITAL AND BETA-NAPHTHOFLAVONE, Method: GAS EXPOSURE
  mutagenic call: inactive; negative
Test System: AMES SALMONELLA TYPHIMURIUM, Strain/Indicator: TA98, Metabolic Activation: RAT, LIVER, S-9, AROCLOR 1254 (30%), Method: DESICCATOR
  mutagenic call: inactive; negative
Test System: AMES SALMONELLA TYPHIMURIUM, Strain/Indicator: TA98, Metabolic Activation: RAT, LIVER, S-9, PHENOBARBITAL AND 5,6-BENZOFLAVONE, Method: GAS EXPOSURE
  mutagenic call: inactive; negative
Test System: AMES SALMONELLA TYPHIMURIUM, Strain/Indicator: TA100, Metabolic Activation: HAMSTER, LIVER, S-9, AROCLOR 1254 (30%), Method: DESICCATOR
  mutagenic call: inactive; negative
Test System: AMES SALMONELLA TYPHIMURIUM, Strain/Indicator: TA100, Metabolic Activation: NONE, Method: DESICCATOR
  mutagenic call: inactive; negative
[2]
  mutagenic call: active; positive
Test System: AMES SALMONELLA TYPHIMURIUM, Strain/Indicator: TA100, Metabolic Activation: RAT LIVER S-9, PHENOBARBITAL AND BETA-NAPHTHOFLAVONE, Method: GAS EXPOSURE
  mutagenic call: active; positive
Test System: AMES SALMONELLA TYPHIMURIUM, Strain/Indicator: TA100, Metabolic Activation: RAT, LIVER, S-9, PCB, Method: GAS EXPOSURE
  mutagenic call: inactive; negative
Test System: AMES SALMONELLA TYPHIMURIUM, Strain/Indicator: TA100, Metabolic Activation: RAT, LIVER, S-9, PHENOBARBITAL AND 5,6-BENZOFLAVONE, Method: GAS EXPOSURE
  mutagenic call: active; positive
Test System: AMES SALMONELLA TYPHIMURIUM, Strain/Indicator: TA1535, Metabolic Activation: HAMSTER, LIVER, S-9, AROCLOR 1254 (30%), Method: DESICCATOR
  mutagenic call: active; positive
Test System: AMES SALMONELLA TYPHIMURIUM, Strain/Indicator: TA1535, Metabolic Activation: NONE, Method: DESICCATOR
  mutagenic call: active; positive
[3]
  mutagenic call: active; positive
Test System: AMES SALMONELLA TYPHIMURIUM, Strain/Indicator: TA1535, Metabolic Activation: RAT LIVER S-9, PHENOBARBITAL AND BETA-NAPHTHOFLAVONE, Method: GAS EXPOSURE
  mutagenic call: active; positive
Test System: AMES SALMONELLA TYPHIMURIUM, Strain/Indicator: TA1535, Metabolic Activation: RAT, LIVER, S-9, AROCLOR 1254 (30%), Method: DESICCATOR
  mutagenic call: active; positive
Test System: AMES SALMONELLA TYPHIMURIUM, Strain/Indicator: TA1535, Metabolic Activation: RAT, LIVER, S-9, PHENOBARBITAL AND 5,6-BENZOFLAVONE, Method: GAS EXPOSURE
  mutagenic call: active; positive
[4]
  mutagenic call: inactive; negative
Test System: AMES SALMONELLA TYPHIMURIUM, Strain/Indicator: TA1537, Metabolic Activation: RAT LIVER S-9, PHENOBARBITAL AND BETA-NAPHTHOFLAVONE, Method: GAS EXPOSURE
  mutagenic call: inactive; negative
Test System: AMES SALMONELLA TYPHIMURIUM, Strain/Indicator: TA1537, Metabolic Activation: RAT, LIVER, S-9, PHENOBARBITAL AND 5,6-BENZOFLAVONE, Method: GAS EXPOSURE
  mutagenic call: inactive; negative
Test System: CHINESE HAMSTER OVARY, Strain/Indicator: CHO-K1 (HPRT)/6-THIOGUANINE, Metabolic Activation: NONE
  mutagenic call: active; positive
Test System: CHINESE HAMSTER OVARY, Strain/Indicator: CHO-K1 (HPRT)/6-THIOGUANINE, Metabolic Activation: RAT, LIVER, S-9, AROCLOR 1254
  mutagenic call: active; positive
Test System: E. COLI, Strain/Indicator: WP2 UVRA (PKM101), Metabolic Activation: RAT, LIVER, S-9, PCB, Method: GAS EXPOSURE
  mutagenic call: inactive; negative
Test System: E. COLI, Strain/Indicator: WP2 UVRA, Metabolic Activation: NONE, Method: GAS EXPOSURE
  mutagenic call: active; positive
Test System: E. COLI, Strain/Indicator: WP2 UVRA, Metabolic Activation: RAT, LIVER, S-9, PCB, Method: GAS EXPOSURE
  mutagenic call: inactive; negative
Test System: E. COLI, Strain/Indicator: WP2 UVRA, Metabolic Activation: RAT, LIVER, S-9, PHENOBARBITAL AND 5,6-BENZOFLAVONE, Method: GAS EXPOSURE
  mutagenic call: active; positive
[5]
  mutagenic call: active; positive
Test System: E.COLI, Strain/Indicator: WP2UVRA, Metabolic Activation: RAT LIVER S-9, PHENOBARBITAL AND BETA-NAPHTHOFLAVONE, Method: GAS EXPOSURE
  mutagenic call: active; positive
Test System: UDS MOUSE HEPATOCYTES, Strain/Indicator: THY INCORP, Metabolic Activation: NONE, Method: IN VIVO-IN VITRO
  mutagenic call: inactive; negative

## C/C=C/C
[1]
  mutagenic call: inactive; negative
Test System: AMES SALMONELLA TYPHIMURIUM, Strain/Indicator: TA98, Metabolic Activation: RAT LIVER S-9, PHENOBARBITAL AND BETA-NAPHTHOFLAVONE (40%), Method: GAS EXPOSURE
  mutagenic call: inactive; negative
[2]
  mutagenic call: inactive; negative
Test System: AMES SALMONELLA TYPHIMURIUM, Strain/Indicator: TA100, Metabolic Activation: RAT LIVER S-9, PHENOBARBITAL AND BETA-NAPHTHOFLAVONE (40%), Method: GAS EXPOSURE
  mutagenic call: inactive; negative
[3]
  mutagenic call: inactive; negative
Test System: AMES SALMONELLA TYPHIMURIUM, Strain/Indicator: TA1535, Metabolic Activation: RAT LIVER S-9, PHENOBARBITAL AND BETA-NAPHTHOFLAVONE (40%), Method: GAS EXPOSURE
  mutagenic call: inactive; negative
[4]
  mutagenic call: inactive; negative
Test System: AMES SALMONELLA TYPHIMURIUM, Strain/Indicator: TA1537, Metabolic Activation: RAT LIVER S-9, PHENOBARBITAL AND BETA-NAPHTHOFLAVONE (40%), Method: GAS EXPOSURE
  mutagenic call: inactive; negative
[5]
  mutagenic call: inactive; negative
Test System: E.COLI, Strain/Indicator: WP2UVRA, Metabolic Activation: RAT LIVER S-9, PHENOBARBITAL AND BETA-NAPHTHOFLAVONE (40%), Method: GAS EXPOSURE
  mutagenic call: inactive; negative

## C=C(C)C(=O)OCC(O)COc1ccc(C(C)(C)c2ccc(OCC(O)COC(=O)C(=C)C)cc2)cc1 (stereo not drawn)
Test System: AMES SALMONELLA TYPHIMURIUM, Strain/Indicator: TA97A, Metabolic Activation: NONE, Method: STANDARD PLATE
  mutagenic call: inactive; negative
Test System: AMES SALMONELLA TYPHIMURIUM, Strain/Indicator: TA97A, Metabolic Activation: RAT LIVER S-9, PHENOBARBITAL AND BETA-NAPHTHAFLAVONE, Method: STANDARD PLATE
  mutagenic call: inactive; negative
Test System: AMES SALMONELLA TYPHIMURIUM, Strain/Indicator: TA98, Metabolic Activation: NONE, Method: STANDARD PLATE
  mutagenic call: inactive; negative
Test System: AMES SALMONELLA TYPHIMURIUM, Strain/Indicator: TA98, Metabolic Activation: RAT LIVER S-9, PHENOBARBITAL AND BETA-NAPHTHAFLAVONE, Method: STANDARD PLATE
  mutagenic call: inactive; negative
Test System: AMES SALMONELLA TYPHIMURIUM, Strain/Indicator: TA100, Metabolic Activation: NONE, Method: STANDARD PLATE
  mutagenic call: inactive; negative
Test System: AMES SALMONELLA TYPHIMURIUM, Strain/Indicator: TA100, Metabolic Activation: RAT LIVER S-9, PHENOBARBITAL AND BETA-NAPHTHAFLAVONE, Method: STANDARD PLATE
  mutagenic call: inactive; negative
Test System: AMES SALMONELLA TYPHIMURIUM, Strain/Indicator: TA102, Metabolic Activation: NONE, Method: STANDARD PLATE
  mutagenic call: inactive; negative
Test System: AMES SALMONELLA TYPHIMURIUM, Strain/Indicator: TA102, Metabolic Activation: RAT LIVER S-9, PHENOBARBITAL AND BETA-NAPHTHAFLAVONE, Method: STANDARD PLATE
  mutagenic call: inactive; negative
Test System: CHINESE HAMSTER OVARY V-79, Strain/Indicator: V79 (HPRT)/6-THIOGUANINE, Metabolic Activation: NONE
  mutagenic call: inactive; negative
